Assay results from paper PMC7343746, “(2S, 4R)-4-[^18F]Fluoroglutamine for In vivo PET Imaging of Glioma Xenografts in Mice: an Evaluation of Multiple Pharmacokinetic Models” (Molecular Imaging and Biology, 2020).
Values joined by “and” are separate entries in the source; they are usually repeats but may differ in a detail not shown here. Equal entries are not always repeated.

Legend:
rat BT4C glioma cells [1] = assay: In vivo PET imaging of subcutaneous glioma xenografts; parameters: species or system Foxn1^nu/nu mouse; conditions: for Tumor-to-background muscle ratio: at uptake plateau around 12.5 min
Excerpt: The subcutaneous tumor model was created by injecting rat BT4C glioma cells subcutaneously into the hind leg and neck region of six athymic nude (Foxn1^nu/nu, Envigo, Gannant, France) mice at 7 weeks old. Tumor growth was visually tracked and subjects PET imaged after 5 weeks. See Electronic Supplemental Materials (ESM) for detailed animal models.
(§1) One to two mice were imaged at a time while under 2 % isoflurane anesthesia with an Inveon multimodality small animal PET/CT scanner (Siemens Medical Solutions, Munich, Germany) commencing with an attenuation CT scan to correct the PET scan data. Ten to twelve megabequerels of the tracer was injected into the tail vein, and the subject(s) were imaged over a 60-min period in list mode dividing framing into 6 × 10 s, 4 × 60 s, 5 × 300 s, 3 × 600 s. Obtained sinograms were reconstructed using the ordered-subset expectation maximization 2-dimensional algorithm to obtain the final PET images and back-corrected for radionuclide decay.
(§2) Image analysis was performed using CARIMAS software published and freely distributed by the Turku PET Center (http://turkupetcentre.fi/carimas/). CT scans were used as rough anatomical reference while tumor regions of interest (ROI) were hand-drawn based upon observed spikes of radioactivity in the PET images at locations correlating with recorded tumor grafts. Control muscle ROIs were drawn on the side opposite to the tumor in the leg flank muscle (based on CT) while the blood ROI was drawn based upon heart anatomical location and observed PET image radioactivity spike during the initial 20 s of imaging in the left ventricle. Standardized uptake values (SUV) were calculated with respect to ROI volume, mean and max tumor radioactivity, total injected radioactivity dose (corrected for tail, cannula, and syringe residual radioactivity), and animal weight, and were additionally presented as tumor-to-background ratio (TBR, tumor-to-healthy brain region for intracranial gliomas and tumor-to-muscle for subcutaneous gliomas) as defined by recent glioma research literature standards. Mean and maximum TBR values were reported as ROI radioactivity per volume divided by mean background radioactivity per volume. The blood radioactivity SUV and gender-specific metabolite-corrected blood radioactivity SUV were then applied to multiple pharmacokinetic models to characterize the flux of the tracer (further described in the “Modeling” section).

rat BT4C glioma cells [2] = assay: Yokoi plot, subcutaneous model; assay type: in vivo, Foxn1^nu/nu mouse; conditions: for Yokoi K1 (AB) plasma to tissue transport rate / Yokoi K1/k2 (AB) binding potential / Yokoi k2 (AB) tissue to plasma transport rate: AB input; for Yokoi K1 (PC) plasma to tissue transport rate / Yokoi K1/k2 (PC) binding potential / Yokoi k2 (PC) tissue to plasma transport rate: PC input
Method: as §2
Using the heart’s left ventricle ROI from the PET data as an uncorrected radioactivity level input and the bioavailable parent-tracer fraction (results: Eqs. 3 and 4 applied to the uncorrected input) as the corrected input, multiple models were investigated to characterize the tissue uptake dynamics. Two-compartment modeling and Logan, Patlak, and Yokoi plots were used to separately model the pharmacokinetics for the gliomas (both subcutaneous and orthotopic loci) and their respective control tissues (healthy muscle and healthy brain, respectively). Where indicated, means plus/minus standard deviations are reported. Difference in parameters for uncorrected versus correct and target tissue versus their respective control regions were tested with students’ paired t tests with P values lower than 0.05 being considered significant.

[3] = system: patient-derived BT3 glioma cells; assay: In vivo PET imaging of orthotopic glioma xenografts; parameters: species or system BALB/cOlaHsd-Foxn1^nu mouse; conditions: for PET TBRmean: orthotopic glioma
Excerpt: The intracranial glioma model was made by injecting female BALB/cOlaHsd-Foxn1^nu (athymic nude, Institute of Animal Genetics, Edinburgh, UK) mice with patient-derived BT3 glioma cells labeled with luciferase into the frontal right hemisphere of the brain at 9 weeks old. Tumors were monitored for growth via in vivo bioluminescence detection and subjects PET imaged after 12 days.
as §1
Image analysis was performed using CARIMAS software published and freely distributed by the Turku PET Center (http://turkupetcentre.fi/carimas/). CT scans were used as rough anatomical reference while tumor regions of interest (ROI) were hand-drawn based upon observed spikes of radioactivity in the PET images at locations correlating with recorded tumor grafts. Control muscle ROIs were drawn on the side opposite to the tumor in the leg flank muscle (based on CT) while the blood ROI was drawn based upon heart anatomical location and observed PET image radioactivity spike during the initial 20 s of imaging in the left ventricle. […] Mean and maximum TBR values were reported as ROI radioactivity per volume divided by mean background radioactivity per volume. The blood radioactivity SUV and gender-specific metabolite-corrected blood radioactivity SUV were then applied to multiple pharmacokinetic models to characterize the flux of the tracer (further described in the “Modeling” section).

rat BT4C glioma cells [4] = assay: Ex vivo biodistribution; assay type: in vivo, Foxn1^nu/nu mouse; conditions: higher than subcutaneous tumor
Excerpt: See Suppl. Materials in ESM for detailed descriptions of biodistribution, stability, cryosectioning, autoradiography, and histology.
Ex Vivo Biodistribution Results
The tracer accumulated highly in the pancreatic tissue with notable high uptake in the skull (bo ne) and femur (bone + marrow). The bone uptake is classically characteristic of defluorination occurring which leads to absorption into the osseous tissue. […]
adipose tissue likely due to the comparative increased number of metabolic processes which encompass its cell type characteristics.
Supplemental Fig. 11. Ex vivo biodistribution averages of [ 18F]FGln uptake 63 minutes post-injection in subcutaneously xenografted BT4C tumor bearing Foxn1 nu/nu mice (female, n = 5) and control C57BL/6JRj […]

[5] = In vivo stability analysis, plasma precipitation assay; parameters: species or system C57BL/6J and Foxn1^nu/nu mice; conditions: after 60 min
Method: Tracer in vivo stability studies were performed with 12 mice consisting of two groups; 6 1-year-old male C57BL/6J and 6 3-month-old female Foxn1^nu/nu mice.
Twelve non-tumor-bearing control mice (6 C57BL/6J and 6 Foxn1^nu/nu) were injected with 9–14 MBq of tracer before a 200-μL blood sample was drawn into a heparinized vial and kept on ice. After 15 min, a second sample was collected during animal sacrifice. Whole blood was weighed and measured for radioactivity before being centrifuged at 730×g and 5 °C for 5 min, separated into plasma and blood cell fractions, and then separately weighed and measured. The values were used along with age, gender, and animal model-specific hematocrit values (reported by suppliers) to calculate the plasma radioactivity fraction of the whole-blood radioactivity (Eq. 1):1 Plasma Activity Fraction=Cp/CRBC+Cp=ρpCpHCT/ρbCb−ρpCp1−HCT+ρpCpHCT where C = radioactivity concentration, ρ = density, and HCT = hematocrit. […]
Aliquots of plasma were precipitated with 2.5 × (volume) methanol, vortexed, and centrifuged at 11,000×g for 5 min. The pellet and supernatant fractions were separated and measured for radioactivity to give the radioactivity fraction of the plasma that was trapped or bound to proteins (Eq. 2):2 Unbound plasma fraction=Csup/Cpel+Csup where C = radioactivity of subscripts which denote the following: sup = supernatant and pel = pellet. […]

[6] = Bone (femoral condyle) average (n = 6)

NC(=O)[C@H]([18F])C[C@H](N)C(=O)O [[^18F]FGln, (2S, 4R)-4-[^18F]fluoroglutamine]
Tumor-to-background muscle ratio (rat BT4C glioma cells [1]; flank locus): 2.0 ± 0.8
Tumor-to-background muscle ratio (rat BT4C glioma cells [1]; neck locus): 1.8 ± 0.6
PET tumor-to-muscle (flank) ratio (rat BT4C glioma cells [1]; subcutaneous BT4C gliomas, n = 12): 1.9 ± 0.7
Time at which tracer uptake plateaued (rat BT4C glioma cells [1]; subcutaneous BT4C tumors): around 12.5 min
Yokoi K1 (AB) plasma to tissue transport rate (rat BT4C glioma cells [2]; [6]): 0.075 ± 0.013 mL min-1 mL-1
Yokoi K1/k2 (AB) binding potential (rat BT4C glioma cells [2]; [6]): 5.48 ± 2.21 mL mL-1
Yokoi k2 (AB) tissue to plasma transport rate (rat BT4C glioma cells [2]; [6]): 0.017 ± 0.012 min⁻¹
Yokoi K1 (PC) plasma to tissue transport rate (rat BT4C glioma cells [2]; [6]): 0.086 ± 0.015 mL min-1 mL-1
Yokoi K1/k2 (PC) binding potential (rat BT4C glioma cells [2]; [6]): 37.68 ± 39.62 mL mL-1
Yokoi k2 (PC) tissue to plasma transport rate (rat BT4C glioma cells [2]; [6]): 0.005 ± 0.006 min⁻¹
Yokoi K1 (AB) plasma to tissue transport rate (rat BT4C glioma cells [2]; Flank muscle average (n = 6)): 0.057 ± 0.023 mL min-1 mL-1
Yokoi K1/k2 (AB) binding potential (rat BT4C glioma cells [2]; Flank muscle average (n = 6)): 0.76 ± 0.13 mL mL-1
Yokoi k2 (AB) tissue to plasma transport rate (rat BT4C glioma cells [2]; Flank muscle average (n = 6)): 0.074 ± 0.028 min⁻¹
Yokoi K1 (PC) plasma to tissue transport rate (rat BT4C glioma cells [2]; Flank muscle average (n = 6)): 0.054 ± 0.017 mL min-1 mL-1
Yokoi K1/k2 (PC) binding potential (rat BT4C glioma cells [2]; Flank muscle average (n = 6)): 1.37 ± 0.23 mL mL-1
Yokoi k2 (PC) tissue to plasma transport rate (rat BT4C glioma cells [2]; Flank muscle average (n = 6)): 0.039 ± 0.013 min⁻¹
Yokoi K1 (AB) plasma to tissue transport rate (rat BT4C glioma cells [2]; Flank tumor average (n = 6)): 0.121 ± 0.039 mL min-1 mL-1
Yokoi K1/k2 (AB) binding potential (rat BT4C glioma cells [2]; Flank tumor average (n = 6)): 1.13 ± 0.09 mL mL-1
Yokoi k2 (AB) tissue to plasma transport rate (rat BT4C glioma cells [2]; Flank tumor average (n = 6)): 0.106 ± 0.029 min⁻¹
Yokoi K1 (PC) plasma to tissue transport rate (rat BT4C glioma cells [2]; Flank tumor average (n = 6)): 0.105 ± 0.027 mL min-1 mL-1
Yokoi K1/k2 (PC) binding potential (rat BT4C glioma cells [2]; Flank tumor average (n = 6)): 1.95 ± 0.15 mL mL-1
Yokoi k2 (PC) tissue to plasma transport rate (rat BT4C glioma cells [2]; Flank tumor average (n = 6)): 0.054 ± 0.011 min⁻¹
Yokoi K1 (AB) plasma to tissue transport rate (rat BT4C glioma cells [2]; Neck tumor average (n = 6)): 0.179 ± 0.076 mL min-1 mL-1
Yokoi K1/k2 (AB) binding potential (rat BT4C glioma cells [2]; Neck tumor average (n = 6)): 1.21 ± 0.08 mL mL-1
Yokoi k2 (AB) tissue to plasma transport rate (rat BT4C glioma cells [2]; Neck tumor average (n = 6)): 0.146 ± 0.056 min⁻¹
Yokoi K1 (PC) plasma to tissue transport rate (rat BT4C glioma cells [2]; Neck tumor average (n = 6)): 0.135 ± 0.039 mL min-1 mL-1
Yokoi K1/k2 (PC) binding potential (rat BT4C glioma cells [2]; Neck tumor average (n = 6)): 2.08 ± 0.13 mL mL-1
Yokoi k2 (PC) tissue to plasma transport rate (rat BT4C glioma cells [2]; Neck tumor average (n = 6)): 0.065 ± 0.016 min⁻¹
PET TBRmean ([3]; Subject A): 4.8
PET TBRmean ([3]; Subject B): 3.6
PET image tumor-to-healthy brain region ratio ([3]; orthotopic human glioma xenografts): 3.6 and 4.8
Pancreas uptake relative to tumor (rat BT4C glioma cells [4]): 6 fold
Plasma radioactivity bound to or incorporated into proteins [5]: roughly 25%
